Laboratory results reported in the NIST ThermoML archive (doi:10.1021/acs.jced.6b00786).

Assay: xn = mol fraction of the nth substance listed
Conditions: 101 kPa, Liquid, Vibrating tube method

NC=O [formamide] + O
mass density [kg/m3]
Conditions | 288.15 K | 298.15 K | 308.15 K | 323.15 K | 333.15 K
x1 = 0.00244 | – | 997.942 | 994.873 | 988.848 | 983.879
x1 = 0.00515 | – | 998.905 | 995.763 | 989.627 | 984.704
x1 = 0.0086 | – | 1000.14 | 996.897 | 990.671 | 985.696
x1 = 0.02032 | – | 1004.2 | 1000.68 | 994.128 | 988.955
x1 = 0.03478 | – | 1009 | 1005.15 | 998.15 | 992.755
x1 = 0.04976 | – | 1013.73 | 1009.5 | 1002.11 | 996.5
x1 = 0.06674 | – | 1018.77 | 1014.31 | 1006.45 | 1000.6
x1 = 0.08229 | – | 1023.18 | 1018.42 | 1010.31 | 1004.2
x1 = 0.1171 | – | 1032.35 | 1027.15 | 1018.36 | 1011.84
x1 = 0.1745 | – | 1045.52 | 1039.6 | 1030.08 | 1023.19
x1 = 0.2169 | – | 1053.94 | 1047.65 | 1037.62 | 1030.56
x1 = 0.2557 | – | 1060.92 | 1054.32 | 1043.94 | 1036.75
x1 = 0.3026 | – | 1068.56 | 1061.67 | 1050.89 | 1043.42
x1 = 0.351 | – | 1075.56 | 1068.41 | 1057.31 | 1049.67
x1 = 0.4027 | – | 1082.34 | 1074.96 | 1063.57 | 1055.76
x1 = 0.4487 | – | 1087.78 | 1080.22 | 1068.62 | 1060.68
x1 = 0.4886 | – | 1092.05 | 1084.37 | 1072.62 | 1064.58
x1 = 0.5601 | – | 1099.14 | 1091.28 | 1079.26 | 1071.15
x1 = 0.5916 | – | 1102.04 | 1094.1 | 1081.99 | 1073.78
x1 = 0.6674 | – | 1108.34 | 1100.24 | 1087.95 | 1079.63
x1 = 0.7066 | – | 1111.34 | 1103.2 | 1090.81 | 1082.46
x1 = 0.7495 | 1122.53 | 1114.37 | 1106.15 | 1093.69 | 1085.28
x1 = 0.7931 | 1125.6 | 1117.37 | 1109.09 | 1096.56 | 1088.11
x1 = 0.8601 | 1129.96 | 1121.65 | 1113.29 | 1100.66 | 1092.16
x1 = 0.8996 | 1132.4 | 1124.05 | 1115.65 | 1102.97 | 1094.46
x1 = 0.948 | 1135.23 | 1126.82 | 1118.38 | 1105.65 | 1097.1
x1 = 0.9753 | 1136.78 | 1128.35 | 1119.88 | 1107.13 | 1098.56
x1 = 0.9847 | 1137.31 | 1128.87 | 1120.39 | 1107.62 | 1099.05
x1 = 0.9897 | 1137.59 | 1129.15 | 1120.66 | 1107.9 | 1099.33
x1 = 0.9959 | 1137.94 | 1129.5 | 1121.01 | 1108.24 | 1099.68
x1 = 1 | 1138.17 | 1129.73 | 1121.22 | 1108.46 | 1099.88
